Laboratory results from ChEMBL document CHEMBL4402508, “Natural product-drug conjugates for modulation of TRPV1-expressing tumors” (Bioorg Med Chem, 2019).
The source made the active and inactive calls. No cut-off for these calls is given here.

Assays:
PC-3 = test: Cytotoxicity in […] expressing human PC3 cells assessed as reduction in cell viability at 200 uM incubated for 24 to 72 hrs by Cell-titer blue assay; assay type: functional, cell-based; details: TDE = time-dependent effect
[1] = biological target: Transient receptor potential cation channel subfamily V member 1 (Homo sapiens) (UniProt Q8NER1); test: Agonist activity at TRPV1 (unknown origin) expressed in HEK-293 cells assessed as induction of calcium influx at 5 uM incubated for 48 hrs by Fura2-AM dye based calcium imaging assay; assay type: cell-based
Sequence of Transient receptor potential cation channel subfamily V member 1 (Homo sapiens) (Q8NER1 whole entry): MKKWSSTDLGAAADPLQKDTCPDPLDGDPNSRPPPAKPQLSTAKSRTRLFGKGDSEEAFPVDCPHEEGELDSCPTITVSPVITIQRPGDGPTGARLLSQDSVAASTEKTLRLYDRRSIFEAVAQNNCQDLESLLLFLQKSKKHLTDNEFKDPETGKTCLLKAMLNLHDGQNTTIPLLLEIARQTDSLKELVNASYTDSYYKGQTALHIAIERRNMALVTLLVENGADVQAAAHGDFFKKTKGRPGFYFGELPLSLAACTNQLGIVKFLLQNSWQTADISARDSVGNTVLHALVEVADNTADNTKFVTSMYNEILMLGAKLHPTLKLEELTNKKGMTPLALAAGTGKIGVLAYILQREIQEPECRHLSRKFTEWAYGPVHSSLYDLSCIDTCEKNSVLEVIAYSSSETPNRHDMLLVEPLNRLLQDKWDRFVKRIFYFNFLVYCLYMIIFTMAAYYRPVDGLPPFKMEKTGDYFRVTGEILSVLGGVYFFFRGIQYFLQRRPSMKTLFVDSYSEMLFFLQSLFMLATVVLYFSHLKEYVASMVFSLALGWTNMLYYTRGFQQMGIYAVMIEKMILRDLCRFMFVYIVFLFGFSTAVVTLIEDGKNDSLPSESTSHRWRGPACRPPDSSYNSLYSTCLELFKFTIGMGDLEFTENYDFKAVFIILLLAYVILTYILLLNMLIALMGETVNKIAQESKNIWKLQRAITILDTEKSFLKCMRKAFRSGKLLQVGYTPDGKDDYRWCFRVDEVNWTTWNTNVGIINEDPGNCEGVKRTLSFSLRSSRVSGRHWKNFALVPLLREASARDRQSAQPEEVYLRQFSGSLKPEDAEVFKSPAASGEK

[2] = biological target: Transient receptor potential cation channel subfamily V member 1 (Homo sapiens) (UniProt Q8NER1); test: Binding affinity to TRPV1 in human U251 cells assessed as compound internalization by measuring compound localization in intracellular compartment at 20 uM incubated for 24 hrs by azide-488 fluorophore based in situ click reaction assay and confocal microscopy; assay type: cell-based
[3] = Drug degradation in PBS assessed as hydrolysis of western conjugate region at 0.2 mM at 37 degC incubated up to 6 hrs by LC-MS analysis; assay type: physicochemical; details: buffer, 200 µM; for Drug degradation: TDE = time-dependent effect
[4] = biological target: Transient receptor potential cation channel subfamily V member 1 (Homo sapiens) (UniProt Q8NER1); test: Agonist activity at TRPV1 (unknown origin) expressed in HEK-293 cells assessed as induction of calcium influx at 50 uM incubated for 48 hrs by Fura2-AM dye based calcium imaging assay; assay type: cell-based
[5] = biological target: Transient receptor potential cation channel subfamily V member 1 (Homo sapiens) (UniProt Q8NER1); test: Agonist activity at TRPV1 (unknown origin) expressed in HEK-293 cells assessed as induction of calcium influx at 50 uM incubated for 48 hrs by Fura2-AM dye based calcium imaging assay relative to capsaicin; assay type: cell-based

Row | Structure (SMILES) | Activity (PC-3) | Activity [1] | Activity [2] | Stability [3] | Activity [4] | Drug degradation [3] | Activity [5] [%]
1 | Cn1nnc2c(C(N)=O)ncn2c1=O | Tde | – | – | – | – | – | –
2 | C#CCCCCCCCCC(=O)NCc1ccc(O)c(OC)c1 | – | Active | Active | – | – | – | –
3 | COc1cc(CNC(=O)CCCC/C=C/C(C)C)ccc1O [CAPSAICIN] | – | – | – | Stable | – | – | –
4 | COc1cc(CNC(=O)CNC(=O)c2ncn3c(=O)n(C)nnc23)ccc1O | Tde | – | – | – | Active | Tde | 40
5 | COc1cc(CNC(=O)CCCCNC(=O)c2ncn3c(=O)n(C)nnc23)ccc1O | Tde | – | – | – | Active | Tde | 40
6 | COc1cc(CNC(=O)CCCCCCNC(=O)c2ncn3c(=O)n(C)nnc23)ccc1O | Tde | – | – | – | Active | Tde | 40
